Results reported in article PMC4894409 (Scientific Reports, 2015).
Where two headings read alike, the source gives them in different places.

Tests used:
recombinant human MAO-A = target: T1, recombinant human MAO-A (Homo sapiens, UniProt P21397); experiment: Kynuramine deamination inhibition assay, MAO-A; format: biochemical; conditions: 80 μM kynuramine, pH 7.4, 37 °C
T1 construct: purchased BD Biosciences Bedford, MA, USA
T1 sequence (P21397 1-527): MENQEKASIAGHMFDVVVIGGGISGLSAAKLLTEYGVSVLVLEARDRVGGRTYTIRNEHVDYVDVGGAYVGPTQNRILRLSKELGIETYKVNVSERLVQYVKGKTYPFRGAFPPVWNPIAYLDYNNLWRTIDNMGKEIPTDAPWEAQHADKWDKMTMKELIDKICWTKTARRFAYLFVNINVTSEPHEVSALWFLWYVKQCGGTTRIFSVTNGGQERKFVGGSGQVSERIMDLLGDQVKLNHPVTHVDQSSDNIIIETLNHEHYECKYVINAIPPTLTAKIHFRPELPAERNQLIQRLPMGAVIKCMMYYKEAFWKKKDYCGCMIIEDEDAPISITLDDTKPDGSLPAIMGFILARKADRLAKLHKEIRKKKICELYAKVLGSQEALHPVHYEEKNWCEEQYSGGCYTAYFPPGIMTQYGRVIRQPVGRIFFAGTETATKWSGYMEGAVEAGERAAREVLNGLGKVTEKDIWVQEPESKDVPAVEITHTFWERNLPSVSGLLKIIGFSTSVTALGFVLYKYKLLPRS
Protocol: (§1) The assay was performed with the addition of inhibitor. Inhibition was calculated as percent of product formation compared to the corresponding control (enzyme-substrate reaction) without the inhibitors. The reactions were carried out in 0.1 M potassium phosphate buffer at pH 7.4. […] The compounds were dissolved in DMSO. The total reaction volume was 200 μL yielding a final DMSO concentration of 1.0% in the reaction mixture.

mice [1] = experiment: FS test after AMPT, PCPA, PRAZ or WAY pretreatment (mechanism of antidepressant-like effect of D1); format: in vivo, Male Swiss mice
Protocol: Mice were pretreated (i.p) with saline solution or AMPT 100 mg/kg (catecholamine depletor) 4 h prior to the oral administration of vehicle 10 mL/kg or D1 5 mg/kg. […] In a separate experiment, pretreatment (i.p) of mice with saline solution or PCPA 100 mg/kg (serotonin depletor) for four consecutive days prior to oral administration of vehicle or D1 5 mg/kg was used to investigate effect of serotonin depletion on antidepressant-like activity of this OAD. […] In all the four experiments, oral administration of vehicle or D1 5 mg/kg was followed by FS test (60 min interval between p.o. treatment and behavioural testing).

recombinant human MAO-B = target: T2, recombinant human MAO-B (Homo sapiens, UniProt P27338); experiment: Kynuramine deamination inhibition assay, MAO-B; format: biochemical; conditions: 50 μM kynuramine, pH 7.4, 37 °C
T2 construct: purchased BD Biosciences Bedford, MA, USA
T2 sequence (P27338 1-520): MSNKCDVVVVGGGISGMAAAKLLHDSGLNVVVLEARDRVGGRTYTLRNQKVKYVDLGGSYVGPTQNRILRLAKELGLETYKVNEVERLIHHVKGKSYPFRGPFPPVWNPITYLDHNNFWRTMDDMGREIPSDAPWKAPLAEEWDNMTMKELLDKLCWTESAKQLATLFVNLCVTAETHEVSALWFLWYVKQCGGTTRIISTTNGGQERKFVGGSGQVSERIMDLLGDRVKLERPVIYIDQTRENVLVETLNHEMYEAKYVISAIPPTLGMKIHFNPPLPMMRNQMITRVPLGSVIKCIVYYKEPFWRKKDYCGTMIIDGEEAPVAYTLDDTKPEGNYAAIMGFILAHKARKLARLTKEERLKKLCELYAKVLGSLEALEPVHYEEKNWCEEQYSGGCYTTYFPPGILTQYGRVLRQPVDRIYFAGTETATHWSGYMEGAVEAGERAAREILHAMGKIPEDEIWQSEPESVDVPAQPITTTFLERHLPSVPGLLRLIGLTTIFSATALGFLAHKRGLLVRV
Protocol: as §1

5-HT1A receptor = target: T3, 5-HT1A receptor (Mus musculus, UniProt Q64264); experiment: [35S]GTPγS binding to mice hippocampal membranes; format: biochemical
T3 construct: The hippocampi of mice were dissected and homogenized in 5 volumes of ice-cold buffer; from tissue; host or cells: mouse hippocampus membranes
T3 sequence (Q64264 1-421): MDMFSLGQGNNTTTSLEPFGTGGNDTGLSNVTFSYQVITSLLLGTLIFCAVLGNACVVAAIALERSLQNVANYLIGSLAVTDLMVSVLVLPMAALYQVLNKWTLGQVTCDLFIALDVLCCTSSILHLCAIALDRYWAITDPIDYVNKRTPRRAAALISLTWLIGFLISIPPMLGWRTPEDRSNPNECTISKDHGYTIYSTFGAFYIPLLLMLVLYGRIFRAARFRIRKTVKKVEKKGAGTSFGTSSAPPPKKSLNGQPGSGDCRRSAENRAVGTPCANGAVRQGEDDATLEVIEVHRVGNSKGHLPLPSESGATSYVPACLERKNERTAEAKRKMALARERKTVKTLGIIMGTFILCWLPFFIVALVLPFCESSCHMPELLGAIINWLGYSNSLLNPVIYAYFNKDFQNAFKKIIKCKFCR
Protocol: The hippocampi of mice were dissected and homogenized in 5 volumes of ice-cold buffer (25 mM Tris-HCl, 0.5 mM dithiothreitol, and 0.5 mM EGTA, pH 7.4). The homogenate was centrifuged (1,000 × g for 5 min at 4 °C) and the resultant supernatant was removed. The remaining pellet was resuspended in buffer, homogenized, and centrifuged. The two supernatants obtained were combined and centrifuged at […] at 4 °C and the pellets were resuspended in membrane preparation buffer. The volumes were adjusted prior to the determination of protein concentration by Bradford method[56] and stored at −80 °C until required. […] The reactions were initiated by the addition of 25 μl [^35S]-GTPγS, followed by a 20 min incubation at 20 °C. The reactions were terminated by rapid filtration. The filters were placed in liquid scintillation cocktail in counting vials. The liquid scintillation spectroscopy was used to measure the radioactivity bound to the filter paper after 10 hour.

mice [2] = conditions: mouse, in vivo; for behavioural observation: male, Swiss
Protocol: A modified method that was adopted by Malone[57] was used in the present study to evaluate general pharmacological alterations in mice following administration of D1. This test permits the observation of behavioural change, report of possible toxic effect or death occurrence in addition to variations in pharmacological responses to different route of drug administrations. Group of animals were subjected to s.c, i.p, or p.o route of D1 administrations at the doses of 2, 10, 50 or 250 mg/kg or vehicle 10 mL/kg and observed for 7 days.

`C=CC(=O)O[C@H]1CC[C@]2(C)[C@H]3CC=C4[C@@H]5CC(C)(C)CC[C@]5(C(=O)O)CC[C@@]4(C)[C@]3(C)CC[C@H]2C1(C)C` [D1, Oleanolic acid acrylate] was tested, and the IC50 (recombinant human MAO-A) was 48.8 ± 1.94 µM, the “effect of AMPT pretreatment on antidepressant-like effect (swimming time)” value (mice [1]; AMPT 100 mg/kg i.p. + D1 5 mg/kg p.o. versus SAL + D1, p > 0.05) was “did not attenuate” and the “effect of PCPA pretreatment on antidepressant-like effect (swimming time)” value (mice [1]; PCPA 100 mg/kg i.p. four days + D1 5 mg/kg p.o. versus SAL + D1, p > 0.05) was “did not block”. The “effect of PRAZ pretreatment on antidepressant-like effect (swimming time)” value (mice [1]; PRAZ 1 mg/kg i.p. + D1 5 mg/kg p.o. versus SAL + D1, p > 0.05) was “did not block”, the “swimming time in the FS test” value (mice [1]; SAL + D1 5 mg/kg p.o. versus SAL + Vehicle, p < 0.05) was “increased the swimming time” and the “effect of WAY pretreatment on antidepressant-like effect (swimming time)” value (mice [1]; WAY 0.3 mg/kg i.p. + D1 5 mg/kg p.o. versus SAL + D1, p < 0.05) was “significant blockade”. The IC50 (recombinant human MAO-B) was over 100 µM, the EC50 (5-HT1A receptor; mice hippocampal membranes, read-out: Agonist potency (pEC50 ± SEM) (converted)) was 0.794 µM and the Emax (5-HT1A receptor; percentage of that produced by 10 μM (+)8-OH-DPAT, read-out: Intrinsic activity (Emax ± SEM in %)) was 26 ± 2%. The behavioural observation (mice [2]) was “Total recovery from the effects of D1 without any sign of toxicity, weight gain or death occurence”, the behavioural observation (mice [2]; 50 mg/kg, 1 hr) was “Effects after 30 min of administrations persisted” and the behavioural observation (mice [2]; 250 mg/kg, 1 hr) was “Effects after 30 min of administrations persisted”. For the same compound, the “behavioural observation (text)” value (mice [2]; 250 mg/kg) was “reduction in exploratory activity”.
